# From patent US10300061B2, “Aminothiazole compounds as protein kinase inhibitors” (priority 2017, dated 2019)
# Where a name gives a salt, the structure may show the parent alone.
# Legend:
# [1] = tested on: Kasumi-1; assay: Kasumi-1 MTS cell viability assay; format: cell-based; details: Homo sapiens, leukemia cell line, 72 hours
# Experimental: (§1) A study was carried out as follows to evaluate in vitro anticancer activity of certain compounds prepared according to EXAMPLE 1 using cell lines and MTS cell viability assays (MTS represents 3-(4,5-dimethylthiazol-2-yl)-5-(3-carboxymethoxyphenyl)-2-(4-sulfophenyl)-2H-tetrazolium).
# (§2) Leukemia cell lines MOLM-13, MV4:11, and Kasumin-1 were purchased from American Type Culture Collection (ATCC, Manassas, Va., USA). The human gastrointestinal stromal tumor GIST-T1 cell line was purchased from Cosmo Bio Co., LTD (Tokyo, Japan). All leukemia cell lines were maintained in RPMI 1640 medium supplemented with 10% fetal bovine serum (FBS), 10 U/ml penicillin, and 10 µg/ml streptomycin at 37° C. and 5% CO2. The cell line GIST-T1 was cultured in DMEM medium supplemented with 10% FBS, 0.01% nonessential amino acids, 10 U/ml penicillin, and 10 µg/ml streptomycin.
# (§3) Cells were seeded in 96-well culture plates at a density of 1×10^4 cells/100 μl/well in triplicates and were treated for 72 hours with an indicated concentration of test compound ranging from 1 nM to 10 μM. Colorimetric CellTiter 96® Aqueous One Solution Cell Proliferation assay (MTS assay; Promega, Madison, Wis., USA) was used to determine the cytotoxicity. The optical density at 492 nm was measured using a microplate photometer (Victor2; Perkin-Elmer, Waltham, Mass., USA). IC50 values were determined by MTS assay when cells were treated with test compound for 72 hours and calculated with GraphPad Prism 6. Each experiment was in triplicate.
# [2] = tested on: GIST-T1; assay: GIST-T1 MTS assay; format: cell-based; details: Homo sapiens, GISTT1; gastrointestinal stromal tumor cell line, 72 hours
# Experimental: as §1, §2
# as §3, with “GIST-T1 cells” for “Cells”, “8000” for “1×10^4”
# [3] = tested on: MOLM-13; assay: MOLM-13 MTS cell viability assay; format: cell-based; details: Homo sapiens, leukemia cell line, 72 hours
# Experimental: as §1, §2, §3
# [4] = tested on: MV4:11; assay: MV4:11 MTS cell viability assay; format: cell-based; details: Homo sapiens, leukemia cell line, 72 hours
# Experimental: as §1, §2, §3
# [5] = molecular target: T1, VEGFR2 (Homo sapiens, UniProt P35968); assay: VEGFR2 Kinase-Glo kinase assay; format: biochemical; details: GST-VEGFR2, 1 μM ATP, 30° C. 120 minutes
# T1 construct: The recombinant GST-VEGFR2 (residues V789-V1356) containing kinase domain; GST; made in house; host or cells: Sf9 insect cells
# Experimental: The recombinant GST-VEGFR2 (residues V789-V1356) containing kinase domain was expressed in Sf9 insect cells. The kinase assay was carried out in 96-well plates with tested compound in a final volume of 50 μl reaction at 30° C. for 120 minutes with following components: 25 mM HEPES pH 7.4, 10 mM MgCl2, 4 mM MnCl2, 0.5 mM Na3VO4, 2 mM DTT, 0.02% Triton X100, 0.01% BSA, 1 μM ATP, 2 μM polyGlu4:Tyr peptide, 50˜100 ng recombinant VEGFR2. Following incubation, 50 μl Kinase-Glo Plus Reagent (Promega, Madison, Wis., USA) was added to each well and the mixture was incubated at 25° C. for 20 min. A 70-μL aliquot of each reaction mixture was transferred to a black microtiter plate and the luminescence was measured on Wallac Vector 1420 multilabel counter (PerkinElmer, Shelton, Conn., USA).
# [6] = tested on: GIST430; assay: GIST430 cell proliferation assay; format: cell-based; details: Homo sapiens, 120 hours
# Experimental: (§4) GIST882, GIST48 and GIST430 cells were all cultured in incubators maintained at 37° C. and 5% CO2. GIST882 was cultured in RPMI-1640 supplemented with 20% fetal bovine serum (FBS). GIST48 was cultured with F10 supplemented with 20% FBS, 0.5% Mito, serum extender (BD Bioscience, 355006) and 1% pituitary extract bovine (BD Bioscience 354123). GIST430 was cultured in IMDM supplemented with 20% FBS. GIST882, GIST430 and GIST48 cells were provided by Dr. Jonathan A. Fletcher (Harvard Medical School, US).
# (§5) GIST cells (4×10^4) were treated with different dosage of compounds. The treated GIST882 cells were incubated for 144 hours and GIST48 and GIST430 cells were incubated for 120 hours at 37° C. in 5% CO2. Cell proliferation was determined by incubating the cells with […] (Clontech, Calif., US) for 1 hour. The absorbance was measured at 450 nm using SpectraMax M5 microplate reader (Molecular Devices, US).
# [7] = tested on: GIST882; assay: GIST882 cell proliferation assay; format: cell-based; details: Homo sapiens, 144 hours
# Experimental: as §4, §5
# [8] = tested on: GIST48; assay: GIST48 cell proliferation assay; format: cell-based; details: Homo sapiens, 120 hours
# Experimental: as §4, §5
# T1 sequence (P35968 789-1356): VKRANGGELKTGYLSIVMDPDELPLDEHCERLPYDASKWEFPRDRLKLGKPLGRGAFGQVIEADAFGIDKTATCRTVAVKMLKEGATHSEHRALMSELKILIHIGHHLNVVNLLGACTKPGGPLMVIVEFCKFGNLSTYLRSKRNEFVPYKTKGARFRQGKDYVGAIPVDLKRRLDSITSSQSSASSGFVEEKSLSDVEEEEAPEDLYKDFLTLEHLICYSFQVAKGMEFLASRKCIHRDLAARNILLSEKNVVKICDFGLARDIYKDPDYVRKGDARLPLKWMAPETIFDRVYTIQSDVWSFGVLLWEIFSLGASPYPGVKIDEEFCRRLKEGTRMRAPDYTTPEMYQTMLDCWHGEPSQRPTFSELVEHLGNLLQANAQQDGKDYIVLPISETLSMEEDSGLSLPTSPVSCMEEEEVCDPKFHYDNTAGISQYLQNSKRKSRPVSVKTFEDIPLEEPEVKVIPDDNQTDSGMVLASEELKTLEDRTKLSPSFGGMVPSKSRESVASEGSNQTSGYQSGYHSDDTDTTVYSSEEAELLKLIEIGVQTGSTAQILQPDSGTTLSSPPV
IC50 [5],Structure (SMILES),GI50 [1],GI50 [2],GI50 [3],GI50 [4],GI50 [6],GI50 [7],GI50 [8]
,"CCN1CCN(c2cc(Nc3ncc(-c4cncnc4)s3)nc(C)n2)CC1 [Compound 12, [6-(4-Ethyl-piperazin-1-yl)-2-methyl-pyrimidin-4-yl]-(5-pyrimidin-5-yl-thiazol-2-yl)-amine hydrochloride salt]",349 nM,119 nM,211 nM,132 nM,,,
< 30 nM,"Cc1nc(Nc2ncc(-c3cccnc3)s2)cc(N2CCN(CCO)CC2)n1 [Compound 9, 2-{4-[2-Methyl-6-(5-pyridin-3-yl-thiazol-2-ylamino)-pyrimidin-4-yl]-piperazin-1-yl}-ethanol hydrochloride salt]",,,,,,,
< 30 nM,"Cc1nc(Nc2ncc(-c3cccnc3)s2)cc(N2CCC(N(C)C)CC2)n1 [Compound 10, [6-(4-Dimethylamino-piperidin-1-yl)-2-methyl-pyrimidin-4-yl]-(5-pyridin-3-yl-thiazol-2-yl)-amine hydrochloride salt]",,,,,,,
,"CCN1CCN(c2cc(Nc3ncc(-c4cccnc4)s3)nc(C)n2)CC1 [Compound 7, [6-(4-Ethyl-piperazin-1-yl)-2-methyl-pyrimidin-4-yl]-(5-pyridin-3-yl-thiazol-2-yl)-amine hydrochloride salt]",266 nM,53 nM,62 nM,34 nM,60 nM,20 nM,820 nM

Structure (SMILES),IC50 [5],GI50 [1],GI50 [2],GI50 [3],GI50 [4],GI50 [6],GI50 [7],GI50 [8]
"CCN1CCN(c2cc(Nc3ncc(-c4ccncc4)s3)nc(C)n2)CC1 [Compound 1, [6-(4-Ethyl-piperazin-1-yl)-2-methyl-pyrimidin-4-yl]-(5-pyridin-4-yl-thiazol-2-yl)-amine hydrochloride salt]",< 30 nM,11 nM,11 nM,10 nM,13 nM,3.8 nM,5 nM,19 nM
